{"source": "patent US10300051B2", "about": "“Cyclopropylamines as LSD1 inhibitors” (priority 2014, dated 2019)", "target": "LSD-1 enzyme (Homo sapiens (Human), UniProt O60341)", "format": "biochemical", "conditions": "1 nM LSD-1 enzyme, 1 hour preincubation at 25° C., Biotin-labeled Histone H3 peptide substrate", "description": "Example A: LSD1 Histone Demethylase Biochemical Assay\nLANCE LSD1/KDM1A demethylase assay—10 μL of 1 nM LSD-1 enzyme (ENZO BML-SE544-0050) in the assay buffer (50 mM Tris, pH 7.5, 0.01% Tween-20, 25 mM NaCl, 5 mM DTT) were preincubated for 1 hour at 25° C. with 0.8 μL compound/DMSO dotted in black 384 well polystyrene plates. […] Reactions were stopped by addition of 10 μL 1× LANCE Detection Buffer (PerkinElmer CR97-100) supplemented with 1.5 nM Eu-anti-unmodified H3K4 Antibody (PerkinElmer TRF0404), and 225 nM LANCE Ultra Streptavidin (PerkinElmer TRF102) along with 0.9 mM Tranylcypromine-HCl (Millipore 616431). After stopping the reactions plates were incubated for 30 minutes and read on a PHERAstar FS plate reader (BMG Labtech).", "data": [{"smiles": "COCC1(CN[C@@H]2C[C@H]2c2ccccc2)CCN(C(=O)CN2CCOCC2)CC1", "note": "[Example 61, (1R,2S)—N-{[4-(methoxymethyl)-1-(morpholin-4-ylacetyl)piperidin-4-yl]methyl}-2-phenylcyclopropanamine]", "values": [{"measurement": "IC50", "result": "< 100", "unit": "nM"}]}]}
